Where “and” joins values, the source holds several entries; their conditions need not be identical. Identical values can stand only once.
Tests used:
[1] = test system: advanced GI cancers; test: Phase I/II trial of IMMU-132 in patients with advanced GI cancers: best response by RECIST and time to progression; format: in vivo, human; conditions: for median TTP: SD patients
Procedure: Patients with metastatic cancers were enrolled after failing standard therapy, starting at a dose of 8.0 mg/kg given on days 1 and 8 of a 3-week cycle. […]

[2] = test system: human urinary bladder carcinoma (5637); test: Efficacy of i.v. vs. s.c. IMMU-132 in 5637 bladder carcinoma xenografts; format: in vivo, athymic nude mice; conditions: for mean tumor volume: day 82; for mice still alive on day 82: N=5; for median survival time (MST): post-therapy initiation
Procedure: 5637 cells were expanded in tissue culture and harvested with trypsin/EDTA. Female athymic nude mice were injected s.c. with 200 μL of 5637 cell suspension mixed 1:1 with matrigel such that 1×10^7 cells was administered to each mouse. Once tumors reached approximately 0.25 cm^3 in size (15 days later), the animals were divided up into three different treatment groups of 4-5 mice each. For the i.v. injections (N=5), mice receive 500 μg i.v. twice a week for four weeks. […] A final group of mice received only saline (N=4) and served as the untreated control. Tumors were measured and mice weighed twice a week. Mice were euthanized for disease progression if their tumor volumes exceeded 1.0 cm^3 in size.

[3] = test system: COLO 205 colonic adenocarcinoma xenografts; conditions: 0.4 mg/kg SN-38 twice weekly×4 weeks
Procedure: Animals were treated twice weekly for 4 weeks as indicated by the arrows.
Animals were implanted subcutaneously with different human cancer cell lines. Tumor volume (TV) was determined by measurements in 2 dimensions using calipers, with volumes defined as: L×w^2/2, where L is the longest dimension of the tumor and w is the shortest. […] This dosing frequency reflected a consideration of the conjugate's serum half-life in vitro, to allow a more continuous exposure to the ADC.
Growth curves are shown as percent change in initial TV over time. Statistical analysis of tumor growth was based on area under the curve (AUC). Profiles of individual tumor growth were obtained through linear-curve modeling. An f-test was employed to determine equality of variance between groups before statistical analysis of growth curves. A 2-tailed t-test was used to assess statistical significance between the various treatment groups and controls, except for the saline control, where a 1-tailed t-test was used (significance at P≤0.05). Statistical comparisons of AUC were performed only up to the time that the first animal within a group was euthanized due to progression.

[4] = test system: Calu-3; test: Signaling events (p21Waf1/Cip1, p53) in Calu-3 cells; format: cell-based, human
Excerpt: SN-38 is known to activate several signaling pathways in cells, leading to apoptosis (e.g., Cusack et al., 2001, Cancer Res 61:3535-40; Liu et al. 2009, Cancer Lett 274:47-53; Lagadec et al., 2008, Br J Cancer 98:335-44). Our initial studies examined the expression of 2 proteins involved in early signaling events (p21^Waf1/Cip1 and p53) and 1 late apoptotic event [cleavage of poly-ADP-ribose polymerase (PARP)] in vitro (not shown).

[5] = format: in vivo, human
Procedure: SN-38 was measured by HPLC.

[6] = one gastric cancer patient with SD

## IMMU-132: ADC of the humanized hRS7 anti-Trop-2 antibody conjugated by a pH-sensitive linker (CL2A) to SN-38
[1]; 29 CRC patients (9 at 10 mg/kg, 20 at 8 mg/kg)
  PR (partial response) as best response by RECIST, number of patients: 1
[1]; CRC patient with PR
  target lesion change of the PR: −65%
  time to progression (TTP) for the PR: ≥ 50 wks
[1]; CRC with KRAS mutations
  median TTP: ≥ 19.1 wks
[1]; CRC, 14 SD patients (5 continuing)
  median TTP for the SD patients: ≥ 21 wks
[1]; esophageal cancer
  TTP of the PR: ≥ 30 wks
  duration of SD in individual patients: ≥ 17.4 wks and 21.9 wks and 26.3 wks and 29.9 wks
[1]; [6]
  ongoing TTP: ≥ 29 wks
  target lesion reduction: 19%
[1]; pancreatic cancer
  median TTP: 15.0 wks
[2]; i.v. 500 μg twice a week for four weeks
  mean tumor volume: 0.066±0.076 cm^3
[2]; i.v.
  mice still alive on day 82: 5
  median survival time (MST): > 67 days
[2]; s.c. 500 μg twice weekly for four weeks
  mean tumor volume: 0.111±0.057 cm^3
[2]; s.c.
  mice still alive on day 82: 5
  median survival time (MST): > 67 days
[3]
  tumor growth vs. saline and hA20-CL2A-SN-38: significantly inhibited tumor growth
[4]
  increase of p21Waf1/Cip1 expression over free SN-38: more than 2 fold
  time of p53 upregulation: ≤ 24 h
[5]; ELISA
  clearance of intact conjugate vs. the IgG: cleared more quickly than the IgG
[5]; patients
  time for the conjugate to clear from the serum: ≤ 3 days
